Data set [1] relates to CHO-K1 cells. As to the kind of experiment: Toxicity of Cl-alkanes, CellTiter-Glo Luminescence Cell Viability Assay. Format: cell-based. How it is done: To study the toxicity of Cl-alkanes, CHO-K1 cells were plated in 96 well plates to a density of 5,000 cells per well. […] Viability of the cells was measured with CellTiter-Glo™ Luminescence Cell Viability Assay (Promega) according to the manufacturer's protocol. Generally, 100 μl of CellTiter-Glo™ reagent was added directly to the cells and the luminescence was recorded at 10 minutes using a DYNEX MLX microtiter plate luminometer.

In the next data set the target is DhaA.H272F (Rhodococcus rhodochrous, UniProt P0A3G2, H272F). The data set is classed as binding. Conditions: dose dependent, HRP conjugated streptavidin.
For data set [2], the system named is CHO-K1 cells. Nature of the data set: Permeability of cell membrane to substrates (uptake and wash-out, fluorescence). The data set is classed as cell-based. The conditions noted are these: 100 μM, 60 minutes. The method, then: CHO-K1 Cells (ATCC-CCL61) were cultured in a 1:1 mixture of Ham's F12 nutrients and Dulbecco's modified minimal essential medium supplemented with 10% fetal bovine serum (FBS), 100 U/ml penicillin, and […] streptomycin, in an atmosphere of 95% air and 5% CO2 at 37° C.

As for `O=C(CCCC[C@@H]1SC[C@@H]2NC(=O)N[C@@H]21)NCCOCCOCCCCCCCl` [biotin-C10H21NO2—Cl, N-{2-[2-(6-Chlorohexyloxy)-ethoxy]ethyl}-biotin-amide], the “toxicity on CHO-K1 cells” value in the data set on CHO-K1 cells [1] (24 hours of treatment at 100 μM) was “No toxicity”. For the same compound, the “concentration at which binding could be detected” value on DhaA.H272F came out at 0.2 µM.

For `O=C(NCCOCCOCCCCCCCl)c1ccc(-c2c3ccc(=O)cc-3oc3cc(O)ccc23)c(C(=O)O)c1` [N-{2-[2-(6-Chlorohexyloxy)-ethoxy]-ethyl}-fluorescein-5-amide], the “crossing of the plasma membrane of CHO-K1 cells” value with CHO-K1 cells [2] was “did not cross the plasma membrane”.

As for “N-{2-[2-(6-Chlorohexyloxy)-ethoxy]-ethyl}-tetramethylrhodamine-5-(and -6)-amide”, in the data set with CHO-K1 cells [1] (4 hour treatment at 100 μM (highest concentration tested)), the “toxicity on CHO-K1 cells” value was “no toxicity”.

For the origin of these results see patent publication US9416353B2, “Covalent tethering of functional groups to proteins and substrates therefor” (Promega Corporation, priority 2004, dated 2016).
